# In PubChem BioAssay (NCI):
#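 GI50 marks 50% less growth. TGI is the concentration that stops growth completely.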
# What was measured:
# Assay in all cases: NCI tumour cell line growth inhibition, 384-well format
# MALME-3M melanoma = tested on: MALME-3M melanoma
# SK-MEL-28 melanoma = tested on: SK-MEL-28 melanoma
# M14 melanoma = tested on: M14 melanoma
# PC-3 prostate = tested on: PC-3 prostate
# NCI-H23 lung = tested on: NCI-H23 lung
# OVCAR-5 ovarian = tested on: OVCAR-5 ovarian
# MDA-MB-468 breast = tested on: MDA-MB-468 breast
# DU-145 prostate = tested on: DU-145 prostate
# UACC-257 melanoma = tested on: UACC-257 melanoma
# HOP-62 NSCLC = tested on: HOP-62 NSCLC
# T-47D breast = tested on: T-47D breast
# SK-OV-3 ovarian = tested on: SK-OV-3 ovarian
# HT29 colon = tested on: HT29 colon
# SN12C renal = tested on: SN12C renal
# UO-31 renal = tested on: UO-31 renal
# BT-549 breast = tested on: BT-549 breast
# LOX IMVI melanoma = tested on: LOX IMVI melanoma
# COLO 205 colon = tested on: COLO 205 colon
# K-562 leukemia = tested on: K-562 leukemia
# SF-268 CNS = tested on: SF-268 CNS
# NCI-H322M lung = tested on: NCI-H322M lung
# UACC-62 melanoma = tested on: UACC-62 melanoma
# SNB-19 CNS = tested on: SNB-19 CNS
# HOP-92 NSCLC = tested on: HOP-92 NSCLC
# MDA-MB-231 breast = tested on: MDA-MB-231 breast
# IGROV1 ovarian = tested on: IGROV1 ovarian
# NCI-H226 lung = tested on: NCI-H226 lung
# EKVX NSCLC = tested on: EKVX NSCLC
# MOLT-4 leukemia = tested on: MOLT-4 leukemia
# A498 renal = tested on: A498 renal
# CCRF-CEM leukemia = tested on: CCRF-CEM leukemia
# 786-0 renal = tested on: 786-0 renal
# RPMI-8226 leukemia = tested on: RPMI-8226 leukemia
# HCT-116 colon = tested on: HCT-116 colon
# OVCAR-3 ovarian = tested on: OVCAR-3 ovarian
# A549 NSCLC = tested on: A549 NSCLC
# ACHN renal = tested on: ACHN renal
# NCI-H460 NSCLC = tested on: NCI-H460 NSCLC
# SF-295 CNS = tested on: SF-295 CNS
# HS 578T breast = tested on: HS 578T breast
# MCF7 breast = tested on: MCF7 breast
# SNB-75 CNS = tested on: SNB-75 CNS
# U251 glioblastoma = tested on: U251 glioblastoma
# HCT-15 colon = tested on: HCT-15 colon
# NCI/ADR-RES ovarian = tested on: NCI/ADR-RES ovarian
# RXF 393 renal = tested on: RXF 393 renal
# TK-10 renal = tested on: TK-10 renal
# OVCAR-8 ovarian = tested on: OVCAR-8 ovarian
# CAKI-1 renal = tested on: CAKI-1 renal
# OVCAR-4 ovarian = tested on: OVCAR-4 ovarian
# SK-MEL-5 melanoma = tested on: SK-MEL-5 melanoma
# SF-539 CNS = tested on: SF-539 CNS
# NCI-H522 lung = tested on: NCI-H522 lung
# SW-620 colon = tested on: SW-620 colon
# HCC-2998 colon = tested on: HCC-2998 colon
# MDA-MB-435 melanoma = tested on: MDA-MB-435 melanoma
# KM12 colon = tested on: KM12 colon
compound,measurement,setting,value
COc1ncc(Nc2ncc([C@@H](C)N3CCN(S(C)(=O)=O)CC3)cc2-c2nc(C)nc(N)n2)cc1F,GI50,MALME-3M melanoma,1.04 µM
same,TGI,MALME-3M melanoma,> 100 µM
same,GI50,SK-MEL-28 melanoma,0.0896 µM
same,TGI,SK-MEL-28 melanoma,6.79 µM
same,GI50,M14 melanoma,1.28 µM
same,TGI,M14 melanoma,> 100 µM
same,GI50,PC-3 prostate,0.0336 µM
same,TGI,PC-3 prostate,18.6 µM
same,GI50,NCI-H23 lung,1.95 µM
same,TGI,NCI-H23 lung,> 100 µM
same,GI50,OVCAR-5 ovarian,0.16 µM
same,TGI,OVCAR-5 ovarian,16.8 µM
same,GI50,MDA-MB-468 breast,< 0.01 µM
same,TGI,MDA-MB-468 breast,0.16 µM
same,GI50,DU-145 prostate,0.651 µM
same,TGI,DU-145 prostate,> 100 µM
same,GI50,UACC-257 melanoma,0.488 µM
same,TGI,UACC-257 melanoma,60.5 µM
same,GI50,HOP-62 NSCLC,1.94 µM
same,TGI,HOP-62 NSCLC,83.7 µM
same,GI50,T-47D breast,< 0.01 µM
same,TGI,T-47D breast,0.0426 µM
same,GI50,SK-OV-3 ovarian,0.0965 µM
same,TGI,SK-OV-3 ovarian,10.4 µM
same,GI50,HT29 colon,0.139 µM
same,TGI,HT29 colon,> 100 µM
same,GI50,SN12C renal,0.0317 µM
same,TGI,SN12C renal,8.95 µM
same,GI50,UO-31 renal,0.187 µM
same,TGI,UO-31 renal,7.21 µM
same,GI50,BT-549 breast,0.0533 µM
same,TGI,BT-549 breast,6.33 µM
same,GI50,LOX IMVI melanoma,0.552 µM
same,TGI,LOX IMVI melanoma,5.65 µM
same,GI50,COLO 205 colon,0.275 µM
same,TGI,COLO 205 colon,67.8 µM
same,GI50,K-562 leukemia,4.54 µM
same,TGI,K-562 leukemia,> 100 µM
same,GI50,SF-268 CNS,< 0.01 µM
same,TGI,SF-268 CNS,0.0889 µM
same,GI50,NCI-H322M lung,0.367 µM
same,TGI,NCI-H322M lung,27.9 µM
same,GI50,UACC-62 melanoma,0.0304 µM
same,TGI,UACC-62 melanoma,1.45 µM
same,GI50,SNB-19 CNS,4.73 µM
same,TGI,SNB-19 CNS,> 100 µM
same,GI50,HOP-92 NSCLC,0.0246 µM
same,TGI,HOP-92 NSCLC,1.22 µM
same,GI50,MDA-MB-231 breast,2.27 µM
same,TGI,MDA-MB-231 breast,> 100 µM
same,GI50,IGROV1 ovarian,< 0.01 µM
same,TGI,IGROV1 ovarian,0.0433 µM
same,GI50,NCI-H226 lung,1.3 µM
same,TGI,NCI-H226 lung,13.7 µM
same,GI50,EKVX NSCLC,0.0733 µM
same,TGI,EKVX NSCLC,5.23 µM
same,GI50,MOLT-4 leukemia,0.015 µM
same,TGI,MOLT-4 leukemia,0.12 µM
same,GI50,A498 renal,0.0322 µM
same,TGI,A498 renal,0.337 µM
same,GI50,CCRF-CEM leukemia,0.0891 µM
same,TGI,CCRF-CEM leukemia,1.55 µM
same,GI50,786-0 renal,0.076 µM
same,TGI,786-0 renal,3.77 µM
same,GI50,RPMI-8226 leukemia,2.8 µM
same,TGI,RPMI-8226 leukemia,8.44 µM
same,GI50,HCT-116 colon,2.79 µM
same,TGI,HCT-116 colon,> 100 µM
same,GI50,OVCAR-3 ovarian,0.061 µM
same,TGI,OVCAR-3 ovarian,3.1 µM
same,GI50,A549 NSCLC,0.138 µM
same,TGI,A549 NSCLC,11.9 µM
same,GI50,ACHN renal,0.1 µM
same,TGI,ACHN renal,> 100 µM
same,GI50,NCI-H460 NSCLC,0.0711 µM
same,TGI,NCI-H460 NSCLC,> 100 µM
same,GI50,SF-295 CNS,0.0498 µM
same,TGI,SF-295 CNS,2.1 µM
same,GI50,HS 578T breast,0.017 µM
same,TGI,HS 578T breast,0.333 µM
same,GI50,MCF7 breast,0.0407 µM
same,TGI,MCF7 breast,27.6 µM
same,GI50,SNB-75 CNS,< 0.01 µM
same,TGI,SNB-75 CNS,0.0481 µM
same,GI50,U251 glioblastoma,1.01 µM
same,TGI,U251 glioblastoma,> 100 µM
same,GI50,HCT-15 colon,0.465 µM
same,TGI,HCT-15 colon,> 100 µM
same,GI50,NCI/ADR-RES ovarian,3.39 µM
same,TGI,NCI/ADR-RES ovarian,> 100 µM
same,GI50,RXF 393 renal,0.0125 µM
same,TGI,RXF 393 renal,0.0763 µM
same,GI50,TK-10 renal,0.294 µM
same,TGI,TK-10 renal,7.94 µM
same,GI50,OVCAR-8 ovarian,1.44 µM
same,TGI,OVCAR-8 ovarian,> 100 µM
same,GI50,CAKI-1 renal,0.023 µM
same,TGI,CAKI-1 renal,18.1 µM
same,GI50,OVCAR-4 ovarian,2.25 µM
same,TGI,OVCAR-4 ovarian,> 100 µM
same,GI50,SK-MEL-5 melanoma,1.03 µM
same,TGI,SK-MEL-5 melanoma,11.9 µM
same,GI50,SF-539 CNS,0.179 µM
same,TGI,SF-539 CNS,4.15 µM
same,GI50,NCI-H522 lung,1.63 µM
same,TGI,NCI-H522 lung,19.5 µM
same,GI50,SW-620 colon,3.8 µM
same,TGI,SW-620 colon,> 100 µM
same,GI50,HCC-2998 colon,1.23 µM
same,TGI,HCC-2998 colon,38.2 µM
same,GI50,MDA-MB-435 melanoma,2.31 µM
same,TGI,MDA-MB-435 melanoma,> 100 µM
same,GI50,KM12 colon,1.36 µM
same,TGI,KM12 colon,> 100 µM
